Assay results taken from ChEMBL document CHEMBL1201862, “PubChem BioAssay data set” (2004).
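48-hour exposure; five concentrations; linearly interpolated endpoints. GI50 is the concentration that inhibits growth by half.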 Calls of active or inactive are those of the source. Rule as the data show it: active = GI50 up to about 1.1 µM and inactive = higher.

What was measured:
Assay in all cases: DTP human tumour cell line panel, 48 h
[1] = system: NCI-H226
[2] = system: CAKI-1
[3] = system: K562
[4] = system: HOP-92
[5] = system: UO-31
[6] = system: NCI-H23
[7] = system: SN12C
[8] = system: SF-295
[9] = system: IGROV-1
[10] = system: HT-29
[11] = system: TK-10
[12] = system: NCI-H522
[13] = system: OVCAR-3
[14] = system: UACC-62
[15] = system: NCI-H460
[16] = system: SF-539
[17] = system: MDA-N
[18] = system: BT-549
[19] = system: Hs-578T
[20] = system: PC-3

SMILES: C/C(=N\O)c1sc(-n2nc(-c3ccccc3)cc2-c2ccccc2)nc1C
- GI50 [1]: 12.3 µM (inactive)
- GI50 [2]: 13.1 µM (inactive)
- GI50 [3]: 12.6 µM (inactive)
- GI50 [4]: > 10 µM (inactive)
- GI50 [5]: 10.6 µM (inactive)
- GI50 [6]: 8.15 µM (inactive)
- GI50 [7]: 6.79 µM (inactive)
- GI50 [8]: 14 µM (inactive)
- GI50 [9]: 12.2 µM (inactive)
- GI50 [10]: 13 µM (inactive)
- GI50 [11]: > 10 µM (inactive)
- GI50 [12]: 12.1 µM (inactive)
- GI50 [13]: 16.3 µM (inactive)
- GI50 [14]: 11.6 µM (inactive)
- GI50 [15]: 15.6 µM (inactive)
- GI50 [16]: 12.2 µM (inactive)

SMILES: CC1(C)O[C@@H](CP(c2ccccc2)c2ccccc2)[C@H](CP(c2ccccc2)c2ccccc2)O1
- GI50 [1]: 6.52 µM (inactive)
- GI50 [2]: 21 µM (inactive)
- GI50 [4]: 8 µM (inactive)
- GI50 [5]: > 10 µM (inactive)
- GI50 [6]: 1.53 µM (inactive)
- GI50 [7]: 4.11 µM (inactive)
- GI50 [8]: 5.62 µM (inactive)
- GI50 [17]: 3.05 µM (inactive)
- GI50 [9]: 2.33 µM (inactive)
- GI50 [18]: 2.96 µM (inactive)
- GI50 [10]: 0.675 µM (active)
- GI50 [11]: 14.2 µM (inactive)
- GI50 [12]: 2.38 µM (inactive)
- GI50 [13]: 0.384 µM (active)
- GI50 [15]: 4.03 µM (inactive)
- GI50 [16]: 7 µM (inactive)

SMILES: C=CCOCn1cnc2c(=O)[nH]c(N)nc21
- GI50 [1]: > 100 µM (inactive)
- GI50 [2]: > 100 µM (inactive)
- GI50 [3]: > 100 µM (inactive)
- GI50 [19]: > 100 µM (inactive)
- GI50 [5]: > 100 µM (inactive)
- GI50 [6]: > 100 µM (inactive)
- GI50 [20]: > 100 µM (inactive)
- GI50 [7]: > 100 µM (inactive)
- GI50 [8]: > 100 µM (inactive)
- GI50 [17]: > 100 µM (inactive)
- GI50 [9]: > 100 µM (inactive)
- GI50 [11]: > 100 µM (inactive)
- GI50 [14]: > 100 µM (inactive)
- GI50 [15]: > 100 µM (inactive)
- GI50 [16]: > 100 µM (inactive)

SMILES: CC(C)C1=Cc2ccc3c(c2C(=O)C1=O)CCCC3
- GI50 [1]: 15 µM (inactive)
- GI50 [2]: 0.955 µM (active)
- GI50 [3]: 2.44 µM (inactive)
- GI50 [4]: 0.998 µM (active)
- GI50 [19]: 20.2 µM (inactive)
- GI50 [5]: 3.31 µM (inactive)
- GI50 [6]: 9.42 µM (inactive)
- GI50 [20]: 13.8 µM (inactive)
- GI50 [7]: 5.27 µM (inactive)
- GI50 [8]: 12.8 µM (inactive)
- GI50 [17]: 6.61 µM (inactive)
- GI50 [9]: 5.27 µM (inactive)
- GI50 [10]: 9.06 µM (inactive)
- GI50 [11]: 2.52 µM (inactive)
- GI50 [12]: 2.27 µM (inactive)
- GI50 [13]: 2.33 µM (inactive)
- GI50 [14]: 7.46 µM (inactive)
- GI50 [15]: 10.6 µM (inactive)
- GI50 [16]: 8.07 µM (inactive)

SMILES: COc1cc(CC(C(=O)O)C(=O)O)c(OC)cc1CC(C(=O)O)C(=O)O
- GI50 [1]: > 100 µM (inactive)
- GI50 [2]: > 100 µM (inactive)
- GI50 [3]: > 100 µM (inactive)
- GI50 [4]: > 100 µM (inactive)
- GI50 [5]: > 100 µM (inactive)
- GI50 [6]: > 100 µM (inactive)
- GI50 [7]: > 100 µM (inactive)
- GI50 [8]: > 100 µM (inactive)
- GI50 [9]: > 100 µM (inactive)
- GI50 [10]: > 100 µM (inactive)
- GI50 [11]: > 100 µM (inactive)
- GI50 [12]: > 100 µM (inactive)
- GI50 [13]: > 100 µM (inactive)
- GI50 [14]: > 100 µM (inactive)
- GI50 [15]: > 100 µM (inactive)
- GI50 [16]: > 100 µM (inactive)

SMILES: COc1ccc2nc(NC(=O)C(=O)NNC(=O)c3ccncc3)sc2c1
- GI50 [1]: > 100 µM (inactive)
- GI50 [2]: > 100 µM (inactive)
- GI50 [3]: > 100 µM (inactive)
- GI50 [4]: > 100 µM (inactive)
- GI50 [5]: > 100 µM (inactive)
- GI50 [6]: > 100 µM (inactive)
- GI50 [7]: > 100 µM (inactive)
- GI50 [8]: > 100 µM (inactive)
- GI50 [9]: > 100 µM (inactive)
- GI50 [10]: > 100 µM (inactive)
- GI50 [11]: > 100 µM (inactive)
- GI50 [12]: > 100 µM (inactive)
- GI50 [13]: > 100 µM (inactive)
- GI50 [14]: > 100 µM (inactive)
- GI50 [15]: > 100 µM (inactive)
- GI50 [16]: > 100 µM (inactive)

SMILES: CCCCCCCCCc1cc(=O)c2ccc(O)cc2o1
- GI50 [1]: 12.6 µM (inactive)
- GI50 [2]: 4.66 µM (inactive)
- GI50 [3]: 14.5 µM (inactive)
- GI50 [4]: 16.4 µM (inactive)
- GI50 [5]: 8.85 µM (inactive)
- GI50 [6]: 63.5 µM (inactive)
- GI50 [7]: > 100 µM (inactive)
- GI50 [8]: 47 µM (inactive)
- GI50 [9]: 41.2 µM (inactive)
- GI50 [10]: > 100 µM (inactive)
- GI50 [11]: 30 µM (inactive)
- GI50 [12]: 31.4 µM (inactive)
- GI50 [13]: 9.38 µM (inactive)
- GI50 [14]: > 100 µM (inactive)
- GI50 [15]: 57.8 µM (inactive)
- GI50 [16]: 44.4 µM (inactive)

SMILES: CC(C)OC(=O)NCCn1cc(-c2ccccc2)nn1
- GI50 [1]: > 100 µM (inactive)
- GI50 [2]: > 100 µM (inactive)
- GI50 [3]: > 100 µM (inactive)
- GI50 [4]: > 100 µM (inactive)
- GI50 [6]: > 100 µM (inactive)
- GI50 [20]: > 100 µM (inactive)
- GI50 [7]: > 100 µM (inactive)
- GI50 [8]: > 100 µM (inactive)
- GI50 [18]: > 100 µM (inactive)
- GI50 [10]: > 100 µM (inactive)
- GI50 [11]: > 100 µM (inactive)
- GI50 [12]: > 100 µM (inactive)
- GI50 [15]: > 100 µM (inactive)
- GI50 [16]: > 100 µM (inactive)
